Measured values reported in ChEMBL document CHEMBL1156829 (Proc Natl Acad Sci U S A, 2008).

What was measured:
Plasmodium falciparum [1] = assay: NOVARTIS: Inhibition of Plasmodium falciparum 3D7 (drug-susceptible) proliferation in erythrocyte-based infection assay; assay type: functional, organism-based; settings: Plasmodium falciparum, 3D7
Plasmodium falciparum [2] = assay: NOVARTIS: Inhibition of Plasmodium falciparum W2 (drug-resistant) proliferation in erythrocyte-based infection assay; assay type: functional, organism-based; settings: Plasmodium falciparum, W2; read-out: EC50
[3] = NOVARTIS: Cytotoxicity against human hepatocellular carcinoma cell line (Huh7); assay type: toxicity, cell-based, Huh-7; settings: Huh7 cells (hepatocellular carcinoma cell line)

Compound	EC50 (Plasmodium falciparum [1]) [nM]	EC50 (Plasmodium falciparum [2]) [nM]	CC50 [3] [nM]
O=C(NCCc1ccccc1)C(=O)NN=Cc1ccccc1	> 1250	> 82	> 10000
Clc1cccc(Cl)c1C[n+]1ccc2ccccc2c1	1890	867	> 100000
COc1cc(C(=O)NCCc2cc3ccccc3[nH]2)ccc1OC1CCN(CC(c2ccccc2)c2ccccc2)CC1	803	94.4	> 10900
Cc1ccc2[nH]c3c(NCCCN(C)C)ncnc3c2c1	77.7	355	42000
OC(COc1ccc(OCC(O)CN2CCN(CCOc3ccccc3)CC2)cc1)CN1CCN(CCOc2ccccc2)CC1 (stereo unspecified)	> 11000	853	> 100000
Cc1ccc2[nH]c3c(NCCN(C)C)ncnc3c2c1	168	254	29600
COc1ccc(NC(=O)CCCCCn2c(SCC(=O)NCCc3ccc(OC)c(OC)c3)nc3ccsc3c2=O)cc1	> 5310	837	> 100000
CN(C)CCCNc1ncnc2c1[nH]c1ccc(Br)cc12	48.1	231	26500
CCN(CC)CCNc1nc(C=Cc2ccc(Cl)cc2)nc2cc3ccccc3cc12	128	193	22500
O=C(C1CC1)N1CCOc2c(cc(-c3csc4ccccc34)cc2OCCc2ccccn2)C1	711	594	68200
O=C(CSc1ccc2nnc(-c3cccc(F)c3)n2n1)Nc1ccc2c(c1)OCO2	2110	819	> 100000
COCCOC(=O)C1=C(C)NC2=C(C(=O)CCC2)C1c1ccc(OC)c(OC)c1OC (stereo unspecified)	> 6970	870	> 100000
COC(=O)c1ccc2c(=O)n(Cc3ccco3)c(SCC(=O)n3nc(N)cc3C)nc2c1	337	819	> 100000
O=C(Nc1ccccc1)C(=Cc1ccncc1)NC(=O)c1ccccc1	> 2700	870	> 100000
COc1cc([N+](=O)[O-])ccc1NC(=O)CN1CCN(C(=O)c2ccco2)CC1	1600	832	> 100000
Cc1cc(N2CCN(Cc3ccccc3)CC2)n2c(nc3ccccc32)c1C#N	323	832	> 100000
Cc1cc(C)nc(Nc2nc(C)c3cc(C)c(C)cc3n2)n1	1320	829	> 100000
O=C(Cc1cccs1)N1CCC(n2c(Cc3ccc(F)cc3)nc3cccnc32)CC1	> 12500	827	> 100000
CCOC(=O)c1c(N)n(-c2ccc(CC)cc2)c2nc3ccccc3nc12	797	823	> 100000
O=C(NCCCN1CCCCC1)c1ccc2c(c1)sc1nc(-c3ccc(F)cc3)cn12	694	870	> 100000
CCOC(=O)c1cnc2ccc(C)cc2c1NCCCN1CCOCC1	900	827	> 100000
Cc1nc(C(C)N(C)Cc2c(C(=O)N3CCCCCCC3)nc3sccn23)c(C)s1 (stereo unspecified)	> 7030	825	> 100000
CC(C)(C)CC(C)(C)Nc1c(-c2ccccc2OC(=O)c2cccc(Br)c2)nc2ccccn12	6620	823	> 100000

Compound	EC50 (Plasmodium falciparum [1]) [nM]	EC50 (Plasmodium falciparum [2]) [nM]	CC50 [3] [nM]
COc1ccccc1Nc1nc2cc([N+](=O)[O-])c([N+](=O)[O-])cc2nc1Nc1cccc(Cl)c1	> 1250	82.2	> 10000
N#Cc1ccc2c(c1)nc1c3ccc4c5c(ccc(c(=O)n21)c53)C(=O)NC4=O	3940	867	> 100000
CCc1ccc(C(=O)C[n+]2cc(-c3ccc(OC)cc3)n3c2CCC3)cc1	677	857	> 98000
Cc1cccc2c1[nH]c1nc(SCC(C)C)nnc12	1480	873	> 100000
COc1cc2c(cc1OC)C1Cc3ccc(OC)c(OC)c3CN1CC2 (stereo unspecified)	2600	871	> 100000
COc1cc(/C=C\C(=O)Nc2c3c(nn2-c2ccc(F)cc2)CSC3)cc(OC)c1OC	614	84.4	> 10000
COc1ccc(-c2cc(C(F)(F)F)n3nc(C(=O)NC4CCCCC4)c(Cl)c3n2)cc1OC	> 441	34.8	> 4020
CC(=O)Nc1ccc(N2C(=O)CSC2c2ccc(Br)cc2)cc1 (stereo unspecified)	2330	865	> 100000
COc1ccc2ccc(OC)c(C3C(C#N)=C(N)OC4=C3C(=O)CC(C)(C)C4)c2c1 (stereo unspecified)	1450	864	> 100000
CC(C)(C)Cc1ccc(OCCCC(=O)Nc2ccc(Cl)c(N)c2)c(CC(C)(C)C)c1	1730	848	> 100000
C=CCSc1nc2sc3c(c2c(=O)n1-c1ccccc1)CCN(CCC)C3	634	847	> 100000
CCCC(=O)N1c2ccc(OC)cc2-c2c(ssc2=S)C1(C)C	791	867	> 100000
O=C1C(Nc2ccc(F)cc2)=C(N2CCCCC2)C(=O)c2ccccc21	335	319	36800
COc1c(C=NNc2nc(Nc3ccc([N+](=O)[O-])cc3)nc(N3CCN(C)CC3)n2)cccc1[N+](=O)[O-]	340	493	56900
CC(C)(C)c1ccc(Cn2nnc3c(O)nc(C4CCN(C(=O)c5ccccc5)CC4)nc32)cc1	242	852	> 100000
CCN1CCN(c2cc(C)c3cc(NC(=O)c4ccc(F)c([N+](=O)[O-])c4)ccc3n2)CC1	1160	365	42900
Cc1cccc(-n2nc(C(C)(C)C)cc2NC(=O)CN(C(=O)/C=C/c2ccccc2)C(C)C)c1C	> 1750	85.5	> 10000
CC1=C(C(=O)OC(C)C)C(c2cccc([N+](=O)[O-])c2)C2=C(CCCC2=O)N1 (stereo unspecified)	> 11100	854	> 100000
Cc1cc(C)c(S(=O)(=O)N(C)CCCNc2ccnc3cc(Cl)ccc23)c(C)c1	167	229	26800
CCN(CC)CCN1C(=O)c2ccccc2NC1c1ccc(Cl)cc1 (stereo unspecified)	370	455	53300
CC(=O)Nc1ccc2c(c1)C(=O)N(C(CC(C)(C)C)C(=O)NC1CCCCC1)[C@@H](CCC(=O)O)C(=O)N2 (stereo partly specified)	868	51.6	6180
COc1ccc(-n2nc3c(c2NC(=O)/C=C\c2cc(OC)c(OC)c(OC)c2)CSC3)cc1	> 752	85.7	> 10000
C1CCC(CN2CCc3nc(N4CCCCC4)sc3C2)CC1	254	83.2	> 10000

Compound	EC50 (Plasmodium falciparum [1]) [nM]	EC50 (Plasmodium falciparum [2]) [nM]	CC50 [3] [nM]
CC1=C(C(=O)Nc2ccc(C)cc2C)C(c2cc(Br)ccc2F)n2ncc(C(=O)Nc3ccc(C)cc3)c2N1 (stereo unspecified)	2550	857	> 100000
Cc1cc(C)n(-c2ccc(NC(=O)C3CCN(Cc4cnc(C)s4)CC3)cc2)n1	811	840	> 100000
CC(=O)N(C1=C(N2CCCC2)C(=O)c2ccccc2C1=O)c1ccc(F)c(F)c1	407	174	20200
Cc1nonc1C(=O)NN=Cc1ccc([N+](=O)[O-])o1	1730	420	49300
CC(C)(C)CC(=O)NCCCCNc1ccnc2cc(Cl)ccc12	20.7	102	> 12200
COc1cccc(CCNC(=O)c2ccc(OC3CCN(CC(c4ccccc4)c4ccccc4)CC3)c(OC)c2)c1	1070	84.5	> 10000
COc1ccc2[nH]c(=O)c(CN(C(=S)Nc3ccccc3OC)C3CCCC3)cc2c1	995	824	> 100000
CSc1cccc(NC(=O)C2C3C=CC4(O3)C2C(=O)N(Cc2ccc(F)cc2)C4C(=O)NC2CCCC(C)C2C)c1 (stereo unspecified)	1430	875	> 100000
COc1ccc(C(=O)C[n+]2cc(-c3ccc(OC)cc3)n3c2CCC3)cc1	892	822	> 100000
COc1ccccc1Cn1c(SCC(=O)Nc2cccc(C(F)(F)F)c2)nc2ccc(Br)cc2c1=O	735	831	> 100000
Cc1ccc(C)c(N2CCN(CCCNC(=O)c3ccc(CSc4nc5cnccc5[nH]4)cc3)CC2)c1	644	190	23000
COc1ccc(C=NN=C2NC(=O)C(CC(=O)Nc3ccccc3)S2)cc1OC (stereo unspecified)	482	857	> 100000
Cn1cnc(S(=O)(=O)Nc2ccccc2C(=O)NCC2CC2)c1	> 1470	82.1	> 10000
COc1cccc(Cn2c3cc(C)sc3c3cnn(C)c(=O)c32)c1	497	583	68600
CCc1nnc2sc(-c3ccc(NC(=O)c4ccc(Br)o4)cc3)nn12	5050	833	> 100000
COc1ccc(CNCc2cc3c(-c4ccc(C)cc4)nn(-c4ccccc4)c3[nH]c2=O)cc1	133	842	> 100000
Cc1cccn2c(=O)c3cc(C(=O)NCc4ccco4)c(=N)n(CCc4ccccc4)c3nc12	388	865	> 100000
CO/C(=C\C(N)=O)C(C)C(/C=C/c1csc(-c2csc(C(C)/C=C/C=C/C(C)C)n2)n1)OC (stereo unspecified)	1240	84.6	> 10000
O=C(C1CC1)N1CCc2cc(Br)cc(S(=O)(=O)N3CCCCCC3)c21	1430	834	> 100000
C=CCc1c(C)nc2ccccc2c1O	707	844	> 100000
CC[n+]1c(/C=C/c2ccc(OC)cc2)ccc2ccccc21	110	85.8	> 10000
